Reference: patent US20040072184A1 (priority 2003, published 2004)

Tested on: SGK2
Assay type: cell-based, human

Compound | CapK sub (CCPM1) | No-Substrate (CCPM1) | PKB sub (CCPM1) | SGK2 kinase activity (result in words)
COC[C@@H]([C@H](O)[C@H](O)C(=O)NCC[C@H](C)c1nc(/C=C/C[C@@H]2O[C@]3(C[C@@H](O)[C@@H]2C)O[C@H]([C@H](C[C@H](O)[C@H](C)[C@H](O)[C@H](C)/C=C(C)/C(C)=C/C=C/C(C)=C\C#N)OC)[C@H](OP(=O)(O)O)C3(C)C)co1)N(C)C [Calyculin A] | 59335 | 0 | 92540 | stimulated SGK2 kinase activity
C=C1[C@@H](O)[C@@H]2O[C@]3(CC[C@H](/C=C/[C@@H](C)[C@@H]4CC(C)=C[C@@]5(O[C@H](C[C@@](C)(O)C(=O)O)CC[C@H]5O)O4)O3)CC[C@H]2O[C@@H]1[C@@H](O)C[C@H](C)[C@H]1O[C@@]2(CCCCO2)CC[C@H]1C [Okadaic Acid] | 161553 | 2078 | 132171 | stimulated SGK2 kinase activity
